Values quoted from earlier work as cited in patent US20080014263A1, “Amorphous eprosartan mesylate and process for the preparation thereof” (Glenmark Pharmaceuticals Limited, priority 2006, published 2008).
Structures can show the parent of a compound that is named as a salt.

Settings: white to off-white free-flowing crystalline powder

Structure (SMILES): CCCCc1ncc(/C=C(\Cc2cccs2)C(=O)O)n1Cc1ccc(C(=O)O)cc1 [Eprosartan mesylate, monomethanesulphonate of (E)-2-butyl-1-(p-carboxybenzyl)-α-2-thienylmethylimidazole-5-acrylic acid]
- solubility in ethanol (ethanol): freely soluble
- solubility in water (water): insoluble
